Holding throughout (format): in vivo, Sprague-Dawley rats
In series [1] the test system is 6-OHDA Stereotactic Injection Induced PD Rats. Put plainly: Grip strength test. The conditions noted are these: for Peak Grip Strength: Mean ± SEM, N=10, Model 558.334 ± 10.175, p<0.001 vs Model. The text has this:
(§1) The rats were respiratory anesthetized with isoflurane; the head was fixed to ensure that there was no movement and the brain surface was adjusted to be flat; the head was shaved, and a skin incision was made along the sagittal suture to expose the fontanel point; the glass electrode was positioned to the fontanel, and the axes of the coordinate monitor were zeroed to locate the brain areas of the SN and the Str based on the coordinates, in which the SN: AP=−5.0 mm; ML=−1.9 mm; DV=−8.5 mm, and Str: AP=+0.5 mm; ML=−3.0 mm; DV=−6.0 mm. […]; slowly inserted the needle into the localized area of SN and Str, waited for 10 min, and then administered the drug of 6-OHDA at a rate of […] for 10 min, and each animal was given […] of each of SN and Str area, and then the needle was slowly withdrawn after the drug was administered for 10 min, and the PD rat model was established.
The animal was placed on the platform with both forelimbs on the gripping pole, followed by grabbing the animal's tail, and pulling it straight back until the pulling force exceeded their gripping force. After the animals lose their grip, the preamplifier automatically recorded the maximum value of the pulling force. After the measurement was completed, the average of the maximum pulling force of each group of animals was calculated to evaluate the rat's locomotor muscle ability. Information on the grip strength test can also be found in the literature (Jeyasingham, et al. 2001 Brain Res Bull. 55(4):541-8).
In this study, 16 Sprague Dawley (SD) male rats 180g-220g were used to establish a PD model by stereotactic unilateral injection of 6-OHDA in the substantia nigra (SN) and striatum (Str) brain areas after one week of acclimatization feeding and were randomly divided into 2 groups of 8 rats each. […]
(§2) Experimental Methods: Seventy 180-220g SD male rats were selected and fed for one week for accumulation, and the PD model was established by stereotactic unilateral injection of 6-OHDA in the Substantia Nigra (SN) and Striatum (Str) regions and were randomly divided into five groups according to their body weights including Madopar group (Madopar, 50 mg/kg), BTUDC-L group (BTUDC, 100 mg/kg), BTUDC-M group (BTUDC, 500 mg/kg), and BTUDC-H group (BTUDC, 1000 mg/kg), with 10 animals in each group. […] At the end of the administration, the test articles were evaluated for tolerance in this model and in behavioral apomorphine—asymmetric rotation test, beam test, rotarod test and grip strength test, immunofluorescence staining (TH, Ibal), and cerebrospinal fluid inflammatory factor assays to evaluate the pharmacodynamic effects of the test articles. […]

Series [2] shares this test system. The series is described as follows: Rotarod test. The conditions noted are these: for Time on the Rod: Mean ± SEM, N=10, Model 63.250 ± 9.871.
Description: as §1
The rotation speed of the rotary rod fatigue meter was set to 20 rpm/min with the test time of 5 min. The animals were placed on the rotating rod in batches for testing, and the time each animal spent on the rod was recorded to evaluate the motor coordination ability of the rats. Information on the rotarod test can also be found in the literature (Bohlen, et al. 2009 J Neurosci Methods 178(1):10-4).
In this study, 16 Sprague Dawley (SD) male rats 180g-220g were used to establish a PD model by stereotactic unilateral injection of 6-OHDA in the substantia nigra (SN) and striatum (Str) brain areas after one week of acclimatization feeding and were randomly divided into 2 groups of 8 rats each. One group was dosed with the test compound BTUDC 500 mg/kg (QD, p.o.) and the other group was the Model group, which was given an equal volume of 0.5% CMC-Na (QD, p.o.) as the test compound group. […]
as §2
Background: Falling from the rotarod earlier than controls is read as motor impairment.

The subject of a further series is IL-1β. Put plainly: Elisa test of cerebrospinal fluid, IL-1β. The conditions noted are these: rat cerebrospinal fluid; BTUDC-H 1000 mg/kg p.o. Qd 21 days; Mean ± SEM, n=10; Model 41.509 ± 1.298; p<0.05 vs Model. The text has this: (§3) The cerebrospinal fluid was directly extracted by inserting a needle through the foramen magnum, and the supernatant was collected after centrifugation for ELISA testing. The kit brand was Shanghai Enzyme Link. The product codes of IL-6, IL-1β, and TNF-α were m1064292, m1037361, and m1002859, respectively. Processed the sample according to the instructions of the ELISA detection kit, adjusted the blank well to zero, measured the absorbance (OD value) of each well sequentially at a wavelength of 450 nm, and calculated the sample concentration based on the standard curve and OD value. […]
(§4) Dosing volume: 10 mL/kg • 1. […] Histochemical test: After the behavioral test, the cerebrospinal fluid from each animal (N=10) was collected, centrifuged to collect the supernatant, and stored at −80° C. for Elisa test (IL-6, IL-1β, TNF-α), then the animals in each group (N=5) were randomly selected to take the modeling side of the striatum for the detection of neurotransmitters, and the rest of them (N=5) were subjected to cardiac perfusion, which was performed by the process of perfusion, fixation, sedimentation and slicing for immunofluorescence staining and photographed, and the number or area of signals were counted by ImageJ software. • 4. […]

For a further series, the system named is IL-6. The series is described as follows: Elisa test of cerebrospinal fluid, IL-6. The following applies: rat cerebrospinal fluid; BTUDC-H 1000 mg/kg p.o. Qd 21 days; Mean ± SEM, n=10; Model 159.058 ± 6.349; p<0.05 vs Model.
Description: as §3, §4

For series [3], the system named is 6-OHDA Stereotactic Injection Induced PD Rats. The series is described as follows: Tolerability / general condition observation in PD rat model. The method, then: In this study, 16 Sprague Dawley (SD) male rats 180g-220g were used to establish a PD model by stereotactic unilateral injection of 6-OHDA in the substantia nigra (SN) and striatum (Str) brain areas after one week of acclimatization feeding and were randomly divided into 2 groups of 8 rats each. One group was dosed with the test compound BTUDC 500 mg/kg (QD, p.o.) and the other group was the Model group, which was given an equal volume of 0.5% CMC-Na (QD, p.o.) as the test compound group. The animals were administered once a day for 21 consecutive days starting from the second day after modeling to evaluate the tolerability and therapeutic potential of BTUDC in the 6-OHDA PD model.
The body weight and food intake of the rats were collected and recorded every day, and the cage side observation for the animals was carried out.
Experimental Methods: Seventy 180-220g SD male rats were selected and fed for one week for accumulation, and the PD model was established by stereotactic unilateral injection of 6-OHDA in the Substantia Nigra (SN) and Striatum (Str) regions and were randomly divided into five groups according to their body weights including Madopar group (Madopar, 50 mg/kg), BTUDC-L group (BTUDC, 100 mg/kg), BTUDC-M group (BTUDC, 500 mg/kg), and BTUDC-H group (BTUDC, 1000 mg/kg), with 10 animals in each group. Another 10 SD male rats were taken for sham operation (only 4 μL of 0.9% NS containing 0.02% ascorbic acid was given to the SN and Str brain regions during modeling) as the Sham group. The drug was administered by gavage once daily continuously for 21 days starting on the second day of modeling (first day of dosing, D1). General observation was made during the dosing period. At the end of the administration, the test articles were evaluated for tolerance in this model and in behavioral apomorphine—asymmetric rotation test, beam test, rotarod test and grip strength test, immunofluorescence staining (TH, Ibal), and cerebrospinal fluid inflammatory factor assays to evaluate the pharmacodynamic effects of the test articles. Inflammatory factors tested included interleukin 6 (1L-6), inflammatory factor […], Tumor Necrosis Factor alpha (TNF-α), inflammatory assays were done in a total of 4 groups included Sham, Model, Madopar and BTUDC-H groups.
Dosing volume: 10 mL/kg • 1. General observation: During the period of drug administration, body weight, food intake test and cage side observation were conducted […]. • 2. Behavioral test: After 21 days of administration, behavioral test was carried out on the following day. • 3. Histochemical test: After the behavioral test, the cerebrospinal fluid from each animal (N=10) was collected, centrifuged to collect the supernatant, and stored at −80° C. for Elisa test (IL-6, IL-1β, TNF-α), then the animals in each group (N=5) were randomly selected to take the modeling side of the striatum for the detection of neurotransmitters, and the rest of them (N=5) were subjected to cardiac perfusion, which was performed by the process of perfusion, fixation, sedimentation and slicing for immunofluorescence staining and photographed, and the number or area of signals were counted by ImageJ software. • 4. Data analysis: After the data were summarized and counted, they were analyzed using SPSS data statistics software (one-way ANOVA, p<0.05 was considered a significant difference), and images were plotted according to the results of SPSS analysis using Graph Pad software. […]

Where [4] appears, read: up to 1000 mg/kg p.o. Qd 21 days.

Consider one compound from US20260217699A1, “BERBERINE TAUROURSODEOXYCHOLATE COMPOSITIONS AND METHODS THEREOF” (SHENZHEN HIGHTIDE BIOPHARMACEUTICAL LTD., priority 2023, published 2026).

Take `COc1ccc2cc3[n+](cc2c1OC)CCc1cc2c(cc1-3)OCO2.C[C@H](CCC(=O)NCCS(=O)(=O)[O-])[C@H]1CC[C@H]2[C@@H]3[C@@H](O)C[C@@H]4C[C@H](O)CC[C@]4(C)[C@H]3CC[C@]12C` [BTUDC, Berberine tauroursodeoxycholate]: the “Grip Strength Test Peak grip strength(gf)” value in series [1] (500 mg/kg QD p.o. 21 days, Model 535.521 ± 15.5632, P < 0.001 vs Model) amounted to 757.479 ± 7.5044 gf. In addition, the “Peak Grip Strength” value in series [1] (BTUDC-H 1000 mg/kg p.o. Qd 21 days) stood at 767.101 ± 6.668; in series [1] (BTUDC-L 100 mg/kg p.o. Qd 21 days) it was 711.616 ± 7.934; in series [1] (BTUDC-M 500 mg/kg p.o. Qd 21 days), 737.000 ± 8.222. Besides, the “Rotarod Test Rod time” value in series [2] (500 mg/kg QD p.o. 21 days, Model 44.063 ± 4.6049, P < 0.001 vs Model) was determined as 252.413 ± 14.4032 s. Also, the “Time on the Rod” value in series [2] (BTUDC-H 1000 mg/kg p.o. Qd 21 days, p<0.001 vs Model) was found to be 172.625 ± 17.355 s; in series [2] (BTUDC-L 100 mg/kg p.o. Qd 21 days, no significance mark), 103.220 ± 5.806 s; in series [2] (BTUDC-M 500 mg/kg p.o. Qd 21 days, p<0.001 vs Model), 148.070 ± 21.760 s. For the same compound, the “IL-1β Conc.” value with IL-1β came out at 37.251 ± 1.005 pg/mL. Also, the “IL-6 Conc.” value in the series on IL-6 amounted to 147.095 ± 1.871 pg/mL. Also, the “tolerability in the PD rat model” value in series [3] (500 mg/kg QD p.o. 21 days) is “well tolerated”. Besides, the “mortality, moribundity, abnormal animal state” value in series [3] (500 mg/kg QD p.o. 21 days, vs model group) is “no Test Compound-related mortality or moribundity nor abnormal animal state”. For the same compound, the “body weight and food intake vs model control group” value in series [3] (500 mg/kg QD p.o. 21 days, whole study period) is recorded as “no obvious differences”. In series [3] (setting [4]), the “body weight growth or food intake compared with other groups of animals” value is on record as “no obvious abnormalities”. Moreover, in series [3] (setting [4]), the tolerability entry is “well tolerated”.
